The source of these data is article PMC3969223, “Characterization of WZ4003 and HTH-01-015 as selective inhibitors of the LKB1-tumour-suppressor-activated NUAK kinases” (Biochemical Journal, 2013).

The test system of one experiment is U2OS cells. Nature of the experiment: 3D Matrigel Transwell invasion assay. Format: cell-based. The note with it: 10 μM, 16 h, 10% FBS chemoattractant. On the procedure:
The ability of U2OS cells to invade in the presence or absence of 10 μM HTH-01-015 or WZ4003 was tested in a growth-factor-reduced Matrigel™ invasion chamber (BD Biosciences, catalogue number 354483) as described previously. Cells were serum-deprived for 2 h, detached using cell-dissociation buffer (Gibco), and 2.5×10^5 cells suspended in DMEM containing 1% (w/v) BSA were added to the upper chambers in triplicate and chemoattractant [DMEM containing 10% (v/v) FBS] was added to the lower wells. The chambers were kept at 37°C in 5% CO2 for 16 h in the presence or absence of 10 μM HTH-01-015 or WZ4003 both in the upper and lower wells. Non-invaded cells were removed from the upper face of the filters by scraping, and cells that had migrated to the lower face of the filters were fixed and stained with Reastain Quick-Diff kit (Reagena) and images (×10 magnification) were captured. For cell invasion assays, statistical significance was assessed using GraphPad Prism 5.0.

The subject of a further experiment is MYPT1 phosphorylation. Nature of the experiment: MYPT1 phosphorylation on detachment, U2OS. The experiment is classed as cell-based. The note with it: 10 μM, 16 h. On the procedure: Figure 7 NUAK1 inhibition suppresses cell proliferation (A) U2OS cells were incubated with or without 10 μM WZ4003 or 10 μM HTH-01-015 and a cell proliferation assay was carried out over 5 days in triplicate using the CellTiter 96® AQueous Non-Radioactive Cell Proliferation Assay kit (Promega) (as described in the Materials and methods section). U2OS cells in which NUAK1 has been knocked-down using two different shRNA hairpins were used in parallel as controls. The efficiency of the knock down of each shRNA is shown in top panel. SCR, control scrambled shRNA hairpin; shNUAK1 (1), first NUAK1 shRNA hairpin; shNUAK1 (2), second NUAK1 shRNA hairpin. (B) U2OS cells were treated with (+) or without (−) 10 μM WZ4003 or 10 μM HTH-01-015. After 16 h cell media was removed and cells were treated with EDTA-PBS-based cell dissociation buffer supplemented with 10 μM WZ4003, 10 μM HTH-01–015 or DMSO for 20 min. Cell detachment was induced with gentle tapping of the plates followed by gentle centrifugation at 70 g for 3 min. Cells were lysed immediately after removal of the media and immunoblotted for the detection of the indicated antibodies. (C and D) As above, except NUAK1^+/+ and NUAK1^−/− MEFs were used. Similar results were obtained in three separate experiments.

The target of another experiment is T1, NUAK1 (Homo sapiens, UniProt O60285).
T1 construct: made in house; host or cells: HEK-293 cells, transient transfection of pEBG2T construct
T1 sequence (O60285 1-661): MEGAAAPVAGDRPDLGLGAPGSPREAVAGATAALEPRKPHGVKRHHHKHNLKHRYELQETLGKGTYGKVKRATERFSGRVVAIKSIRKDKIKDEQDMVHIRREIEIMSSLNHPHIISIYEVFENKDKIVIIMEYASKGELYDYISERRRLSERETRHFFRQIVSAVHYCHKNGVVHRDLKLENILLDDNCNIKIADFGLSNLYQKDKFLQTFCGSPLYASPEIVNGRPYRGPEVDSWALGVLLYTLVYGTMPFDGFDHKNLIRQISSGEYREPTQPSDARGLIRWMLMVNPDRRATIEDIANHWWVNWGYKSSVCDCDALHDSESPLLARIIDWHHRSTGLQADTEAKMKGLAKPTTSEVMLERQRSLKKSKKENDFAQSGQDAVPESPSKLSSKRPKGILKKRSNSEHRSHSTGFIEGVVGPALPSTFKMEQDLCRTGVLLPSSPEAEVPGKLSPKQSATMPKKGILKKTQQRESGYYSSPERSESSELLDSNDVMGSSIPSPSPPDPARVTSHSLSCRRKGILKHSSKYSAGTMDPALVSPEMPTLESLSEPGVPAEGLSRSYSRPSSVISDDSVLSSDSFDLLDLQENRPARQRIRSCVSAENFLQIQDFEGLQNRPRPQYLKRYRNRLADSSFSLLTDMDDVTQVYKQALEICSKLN
Nature of the experiment: GST–NUAK1 Sakamototide peptide kinase assay. The conditions noted are these: 200 μM Sakamototide, 100 μM [γ-32P]ATP; read-out: IC50 for NUAK1 (wild-type GST–NUAK1). The experiment is classed as biochemical. As to the method: Active GST–NUAK1, GST–NUAK1[A195T] and GST–NUAK2 enzymes were purified using glutathione–Sepharose from HEK-293 cell lysates 36–48 h following the transient transfection of pEBG2T mammalian constructs expressing N-terminal GST-tagged NUAK1, NUAK1[A195T] or NUAK2. For peptide kinase assays, 96-well plates were used, and each reaction was performed in triplicate. Each reaction was set up in a total volume of 50 μl containing 100 ng of NUAK1 (wild-type or A195T mutant) or NUAK2 in 50 mM Tris/HCl (pH 7.5), 0.1 mM EGTA, 10 mM magnesium acetate, 200 μM Sakamototide, 0.1 mM [γ-^32P]ATP (450–500 c.p.m./pmol) and the indicated concentrations of inhibitors dissolved in DMSO. After incubation for 30 min at 30°C, reactions were terminated by adding 25 mM (final) EDTA to chelate the magnesium. Then, 40 μl of the reaction mix was spotted on to P81 paper and immersed in 50 mM orthophosphoric acid. Samples were washed three times in 50 mM orthophosphoric acid followed by a single acetone rinse and air drying. The incorporation of [γ-^32P]ATP into Sakamototide was quantified by Cerenkov counting. The values were expressed as a percentage of the DMSO control. IC50 curves were developed and IC50 values were calculated using GraphPad Prism software.

As for `Cc1nc(Nc2cnn(C3CCNCC3)c2)nc2c1N(C)C(=O)c1cc3ccccc3cc1N2C` [HTH-01-015], the “Invasiveness of U2OS cells (in words)” value with U2OS cells was “markedly inhibited the invasiveness”. Further, the “Suppression of MYPT1 phosphorylation in U2OS cells (in words)” value in the experiment on MYPT1 phosphorylation is listed as “to the same extent as shRNA-mediated NUAK1 knockdown”. Also, at NUAK1, the IC50 was determined as 100 nM.

Consider `CCC(=O)Nc1cccc(Oc2nc(Nc3ccc(N4CCN(C)CC4)cc3OC)ncc2Cl)c1` [WZ4003], for which the “Invasiveness of U2OS cells (in words)” value in the experiment on U2OS cells is “markedly inhibited the invasiveness”. Besides, in the experiment with MYPT1 phosphorylation, the “Suppression of MYPT1 phosphorylation in U2OS cells (in words)” value is listed as “to the same extent as shRNA-mediated NUAK1 knockdown”. The IC50 on NUAK1 amounted to 20 nM.

Regarding `CN1C(=O)c2ccccc2N(C)c2nc(Nc3cnn(C4CCNCC4)c3)ncc21` [XMD-17-51], the IC50 on NUAK1 stood at 1.5 nM.

Turning to `CN1C(=O)c2cc3ccccc3cc2N(C)c2nc(Nc3cnn(C4CCNCC4)c3)ncc21` [XMD-18-42], the IC50 on NUAK1 is 30 nM.
